For one molecule, Activity results are on record in ChEMBL document CHEMBL1158269, “Ehretianone, a novel quinonoid xanthene from Ehretia buxifolia with antisnake venom activity” (J Nat Prod, 1996).

Data set [1] is described as follows: Prophylactic activity against Echis carinatus venom assessed as mortality at 3.75 mg/kg, sc administered 30 mins before injection of venom to Swiss albino mouse measured within 24 hrs. The data set is classed as functional. The note with it: route subcutaneous.
A further data set deals with Mus musculus. Description: Toxicity in Swiss albino mouse up to 100 mg/kg, sc. The note with it: in vivo. The data set is classed as organism-based. The arrangement: dose 100 mg/kg, route subcutaneous.
Data set [2] is described as follows: Antisnake venom activity against Echis carinatus venom assessed as mortality at 2.50 mg/kg preincubated for 30 mins with venom LD50 before subcutaneous administration to Swiss albino mouse measured within 24 hrs. The data set is classed as functional. The note with it: dose 2.5 mg/kg.
Data set [3] can be described thus: Antisnake venom activity against Echis carinatus venom assessed as mortality at 3.75 mg/kg preincubated for 30 mins with venom LD50 before subcutaneous administration to Swiss albino mouse measured within 24 hrs. Type of data set: functional.
Data set [4] in a line: Curative activity against Echis carinatus venom assessed as mortality at 3.75 mg/kg, sc administered 45 mins after injection of venom to Swiss albino mouse measured within 24 hrs. The data set is classed as functional. Conditions: route subcutaneous.
Data set [5] in a line: Antisnake venom activity against Echis carinatus venom assessed as mortality at 1.25 mg/kg preincubated for 30 mins with venom LD50 before subcutaneous administration to Swiss albino mouse measured within 24 hrs. Type of data set: functional.
Data set [6] in a line: Curative activity against Echis carinatus venom assessed as mortality at 3.75 mg/kg, sc administered 30 mins after injection of venom to Swiss albino mouse measured within 24 hrs. Type of data set: functional. Conditions: route subcutaneous.
The nature of data set [7]: Curative activity against Echis carinatus venom assessed as mortality at 3.75 mg/kg, sc administered 5 mins after injection of venom to Swiss albino mouse measured within 24 hrs. The data set is classed as functional. Conditions: route subcutaneous.

For `CC(C)=CC[C@]12C(=O)C=CC(=O)[C@]13CC(C)=C[C@H]2c1cc(O)ccc1O3` [EHRETIANONE], the Activity in data set [1] was 16.7%; in the data set with Mus musculus, “Non-toxic”; in data set [2], 26.7%; in data set [3] it was 13.3%; in data set [4] it was 45%; in data set [5], 43.3%. Also, the Activity came to 38.3% in data set [6] and 21.7% in data set [7].
